From patent US12552783B2, “Modulators of proteolysis and associated methods of use” (Arvinas Operations, Inc., priority 2018, dated 2026)

How the values were obtained:
KRas [1] = target: T1, KRas (Homo sapiens, UniProt P01116, G12C); assay: KRas degradation in SW1573 cells by Western blot, normalized to GAPDH (data of Table 14); format: cell-based
Summary of the method: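 SW1573 cells, homozygous for the KRas G12C mutation and maintained in DMEM with 10% FBS and 1% penicillin-streptomycin, were seeded in 12-well plates, allowed to attach overnight at 37° C. under 5% CO2, then serum-starved for 24 hours before compound exposure. KRas levels were measured by Western blot, normalized to GAPDH, and compared with DMSO controls to give percent degradation, DC50 and Dmax.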

KRas [2] = target: T1, KRas; assay: KRas degradation in NCI-H2030 cells by Western blot, normalized to GAPDH (data of Table 14); format: cell-based; design: host or cells: NCI-H2030; settings: for Dmax: NCI-H2030
Summary of the method: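 After overnight adherence and 24 h without FBS, compounds added at 0.3, 1 or 3 μM (0.1% DMSO) for 24 h (VHL-based) or 72 h (others). Western blot of RIPA lysates, KRas signal over GAPDH relative to DMSO; DC50 and DMax derived, or <25% scored visually.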

SMILES	DC50 (KRas [1]; SW1573 cells) [nM]	Dmax (KRas [1]; SW1573 cells) [%]	Percent Degradation at Indicated Concentration (μM) (KRas [1]; SW1573 cells, 0.01 μM)	Percent Degradation at Indicated Concentration (μM) (KRas [1]; SW1573 cells, 0.03 μM)	Percent Degradation at Indicated Concentration (μM) (KRas [1]; SW1573 cells, 0.1 μM)	Percent Degradation at Indicated Concentration (μM) (KRas [1]; SW1573 cells, 0.3 μM)	Percent Degradation at Indicated Concentration (μM) (KRas [1]; SW1573 cells, 1 μM)	Percent Degradation at Indicated Concentration (μM) (KRas [2]; H2030 cells, 0.3 μM)	Percent Degradation at Indicated Concentration (μM) (KRas [2]; H2030 cells, 1 μM)	Percent Degradation at Indicated Concentration (μM) (KRas [2]; H2030 cells, 3 μM)	Dmax (KRas [2]; H2030 cells) [%]	Percent Degradation at Indicated Concentration (μM) (KRas [1]; SW1573 cells, 3 μM)	other results
C=CC(=O)N1CCN(c2nc(NCCC(=O)N(C)CCOCCOCCOCCOCC(=O)N[C@H](C(=O)N3C[C@H](O)C[C@H]3C(=O)N[C@@H](C)c3ccc(-c4scnc4C)cc3)C(C)(C)C)nc3c(F)c(-c4cc(O)cc5ccccc45)c(Cl)cc23)CC1 (racemic) [compound 196, (2RS,4SR)-1-((RS)-21-((4-(4-acryloylpiperazin-1-yl)-6-chloro-8-fluoro-7-((SR)-3-hydroxynaphthalen-1-yl)quinazolin-2-yl)amino)-2-(tert-butyl)-18-methyl-4,19-dioxo-6,9,12,15-tetraoxa-3,18-diazahenicosanoyl)-4-hydroxy-N-((RS)-1-(4-(4-methylthiazol-5-yl)phenyl)ethyl)pyrrolidine-2-carboxamide]	–	–	–	–	–	–	–	–	–	–	–	–	DC50 (KRas [1]; SW1573): ≥ 1000 nM; Dmax (KRas [1]; SW1573): ≤ 35%; Percent Degradation at Indicated Concentration (μM) (KRas [1]; SW1573, 0.03 μM): C (Percent Degradation: C ≤ 35); Percent Degradation at Indicated Concentration (μM) (KRas [1]; SW1573, 0.1 μM): C (Percent Degradation: C ≤ 35); Percent Degradation at Indicated Concentration (μM) (KRas [1]; SW1573, 0.3 μM): C (Percent Degradation: C ≤ 35); Percent Degradation at Indicated Concentration (μM) (KRas [1]; SW1573, 1 μM): C (Percent Degradation: C ≤ 35); Percent Degradation at Indicated Concentration (μM) (KRas [1]; SW1573, 3 μM): C (Percent Degradation: C ≤ 35); DC50 (KRas [2]; H2030): ≥ 1000 nM; Percent Degradation at Indicated Concentration (μM) (KRas [2]; H2030, 0.03 μM): C (Percent Degradation: C ≤ 35); Percent Degradation at Indicated Concentration (μM) (KRas [2]; H2030, 0.1 μM): C (Percent Degradation: C ≤ 35); Percent Degradation at Indicated Concentration (μM) (KRas [2]; H2030, 0.3 μM): C (Percent Degradation: C ≤ 35); Percent Degradation at Indicated Concentration (μM) (KRas [2]; H2030, 1 μM): C (Percent Degradation: C ≤ 35); Percent Degradation at Indicated Concentration (μM) (KRas [2]; H2030, 3 μM): C (Percent Degradation: C ≤ 35); Dmax (KRas [2]): ≤ 35%
C=CC(=O)N1CCN(c2nc(O[C@H](C)CN3CCC(OCCOCC(=O)N[C@H](C(=O)N4C[C@H](O)C[C@H]4C(=O)N[C@@H](C)c4ccc(-c5scnc5C)cc4)C(C)(C)C)CC3)nc3c(F)c(-c4cc(O)cc5ccccc45)c(Cl)cc23)CC1 [compound 398, (2S,4R)-1-((2S)-2-(2-(2-((1-((2R)-2-((4-(4-acryloylpiperazin-1-yl)-6-chloro-8-fluoro-7-(3-hydroxynaphthalen-1-yl)quinazolin-2-yl)oxy)propyl)piperidin-4-yl)oxy)ethoxy)acetamido)-3,3-dimethylbutanoyl)-4-hydroxy-N-((S)-1-(4-(4-methylthiazol-5-yl)phenyl)ethyl)pyrrolidine-2-carboxamide]	< 100	35 to 70	C (Percent Degradation: C ≤ 35)	B (35 < B < 70)	B (35 < B < 70)	B (35 < B < 70)	C (Percent Degradation: C ≤ 35)	C (Percent Degradation: C ≤ 35)	C (Percent Degradation: C ≤ 35)	C (Percent Degradation: C ≤ 35)	≤ 35	–	–
C=CC(=O)N1CCN(c2nc(O[C@H](C)CN3CCC(OCCOCCOCCOCC(=O)N[C@H](C(=O)N4C[C@H](O)C[C@H]4C(=O)N[C@@H](C)c4ccc(-c5scnc5C)cc4)C(C)(C)C)CC3)nc3c(F)c(-c4cc(O)cc5ccccc45)c(Cl)cc23)CC1 [compound 400, (2S ,4R)-1-((2S)-14-((1-((2R)-2-((4-(4-acryloylpiperazin-1-yl)-6-chloro-8-fluoro-7-(3-hydroxynaphthalen-1-yl)quinazolin-2-yl)oxy)propyl)piperidin-4-yl)oxy)-2-(tert-butyl)-4-oxo-6,9,12-trioxa-3-azatetradecanoyl)-4-hydroxy-N-((S)-1-(4-(4-methylthiazo1-5-yl)phenyl)ethyl)pyrrolidine-2-carboxamide]	≥ 1000	≤ 35	C (Percent Degradation: C ≤ 35)	C (Percent Degradation: C ≤ 35)	C (Percent Degradation: C ≤ 35)	C (Percent Degradation: C ≤ 35)	C (Percent Degradation: C ≤ 35)	C (Percent Degradation: C ≤ 35)	C (Percent Degradation: C ≤ 35)	C (Percent Degradation: C ≤ 35)	≤ 35	–	–
C=CC(=O)N1CCN(c2nc(O[C@H](C)CN3CCC(OCCOCCOCCOCCOCC(=O)N[C@H](C(=O)N4C[C@H](O)C[C@H]4C(=O)N[C@@H](C)c4ccc(-c5scnc5C)cc4)C(C)(C)C)CC3)nc3c(F)c(-c4cc(O)cc5ccccc45)c(Cl)cc23)CC1 [compound 401, (2S,4R)-1-((2S)-17-((1-((2R)-2-((4-(4-acryloylpiperazin-1-yl)-6-chloro-8-fluoro-7-(3-hydroxynaphthalen-1-yl)quinazolin-2-yl)oxy)propyl)piperidin-4-yl)oxy)-2-(tert-butyl)-4-oxo-6,9,12,15-tetraoxa-3-azaheptadecanoyl)-4-hydroxy-N-((S)-1-(4-(4-methylthiazol-5-yl)phenyl)ethyl)pyrrolidine-2-carboxamide]	≥ 1000	≤ 35	C (Percent Degradation: C ≤ 35)	C (Percent Degradation: C ≤ 35)	C (Percent Degradation: C ≤ 35)	C (Percent Degradation: C ≤ 35)	C (Percent Degradation: C ≤ 35)	C (Percent Degradation: C ≤ 35)	C (Percent Degradation: C ≤ 35)	C (Percent Degradation: C ≤ 35)	≤ 35	–	–
Cc1ncsc1-c1ccc([C@H](C)NC(=O)[C@@H]2C[C@@H](O)CN2C(=O)[C@@H](NC(=O)COCCOCCOCCOCCO[C@@H]2C[C@@H](COc3nc4c(c(N5CCN(C(N)=O)[C@@H](CC#N)C5)n3)CCN(c3cccc5ccccc35)C4)N(C)C2)C(C)(C)C)cc1 [compound 537, (S)-2-(cyanomethyl)-4-(2-(((2S,4R)-4-(((S)-16-((2S,4R)-4-hydroxy-2-(((S)-1-(4-(4-methylthiazol-5-yl)phenyl)ethyl)carbamoyl)pyrrolidine-1-carbonyl)-17,17-dimethyl-14-oxo-3,6,9,12-tetraoxa-15-azaoctadecyl)oxy)-1-methylpyrrolidin-2-yl)methoxy)-7-(naphthalen-1-yl)-5,6,7,8-tetrahydropyrido[3,4-d]pyrimidin-4-yl)piperazine-1-carboxamide]	–	–	–	–	–	C (Percent Degradation: C ≤ 35)	C (Percent Degradation: C ≤ 35)	–	–	–	–	C (Percent Degradation: C ≤ 35)	–

Further lines, with some results ahead:

DC50 (KRas [1]; SW1573 cells) [nM]	Dmax (KRas [1]; SW1573 cells) [%]	Percent Degradation at Indicated Concentration (μM) (KRas [1]; SW1573 cells, 0.01 μM)	Percent Degradation at Indicated Concentration (μM) (KRas [1]; SW1573 cells, 0.03 μM)	Percent Degradation at Indicated Concentration (μM) (KRas [1]; SW1573 cells, 0.1 μM)	Percent Degradation at Indicated Concentration (μM) (KRas [1]; SW1573 cells, 0.3 μM)	Percent Degradation at Indicated Concentration (μM) (KRas [1]; SW1573 cells, 1 μM)	Percent Degradation at Indicated Concentration (μM) (KRas [2]; H2030 cells, 0.3 μM)	Percent Degradation at Indicated Concentration (μM) (KRas [2]; H2030 cells, 1 μM)	Percent Degradation at Indicated Concentration (μM) (KRas [2]; H2030 cells, 3 μM)	Dmax (KRas [2]; H2030 cells) [%]	Percent Degradation at Indicated Concentration (μM) (KRas [1]; SW1573 cells, 3 μM)	SMILES	other results
–	–	–	C (Percent Degradation: C ≤ 35)	C (Percent Degradation: C ≤ 35)	C (Percent Degradation: C ≤ 35)	C (Percent Degradation: C ≤ 35)	–	–	–	–	C (Percent Degradation: C ≤ 35)	CN1C[C@H](OCCOCCOc2ccc3c(c2)C(=O)N(C2CCC(=O)NC2=O)C3=O)C[C@H]1COc1nc2c(c(N3CCN(C(N)=O)[C@@H](CC#N)C3)n1)CCN(c1cccc3ccccc13)C2 (stereo partly drawn) [compound 539, (2S)-2-(cyanomethyl)-4-(2-(((2S,4R)-4-(2-(2-((2-(2,6-dioxopiperidin-3-yl)-1,3-dioxoisoindolin-5-yl)oxy)ethoxy)ethoxy)-1-methylpyrrolidin-2-yl)methoxy)-7-(naphthalen-1-yl)-5,6,7,8-tetrahydropyrido[3,4-d]pyrimidin-4-yl)piperazine-1-carboxamide]	–
–	–	–	–	–	C (Percent Degradation: C ≤ 35)	C (Percent Degradation: C ≤ 35)	–	–	–	–	C (Percent Degradation: C ≤ 35)	CN1C[C@H](OCCOCCNc2cccc3c2C(=O)N(C2CCC(=O)NC2=O)C3=O)C[C@H]1COc1nc2c(c(N3CCN(C(N)=O)[C@@H](CC#N)C3)n1)CCN(c1cccc3ccccc13)C2 (stereo partly drawn) [compound 543, (2S)-2-(cyanomethyl)-4-(2-(((2S,4R)-4-(2-(2-((2-(2,6-dioxopiperidin-3-yl)-1,3-dioxoisoindolin-4-yl)amino)ethoxy)ethoxy)-1-methylpyrrolidin-2-yl)methoxy)-7-(naphthalen-1-yl)-5,6,7,8-tetrahydropyrido[3,4-d]pyrimidin-4-yl)piperazine-1-carboxamide]	–
